Test results taken from patent publication US20240181049A1, “HARNESSING THE POWER OF MICROBIOTA AND METABOLITES FOR THE TREATMENT OF CANCER” (UTI LIMITED PARTNERSHIP, priority 2019, published 2024).

System: naïve OVA323-339-specific OT-II CD4^+ T cells
Experiment: BMDC / naive OT-II CD4+ T cell co-culture, Th1 differentiation
Type: cell-based, mice
Conditions: 2 mM inosine, 48 hours
Excerpt: FIG. 4A-4K: Effect of inosine on T cell differentiation and dependency on classical dendritic cells of ICB therapy efficacy. (a) Scatter plot of untargeted metabolomics data in the serum of anti-CTLA-4 treated, tumor-bearing B.p. monocolonized compared to C.sp. monocolonized and germ-free (GF) mice. Grey circles or dotted grey circles depict inosine or inosine fragments/adducts, respectively. […] (c) Naïve CD4^+ T cells were co-cultured with bone marrow derived dendritic cells and IFN-γ. Quantification of T-bet^+CD3ε^+CD4^+ T cells 48 hours after co-culture in the presence or absence of inosine, A2A receptor inhibitor (ZM241385), cell permeable cAMP (db-cAMP) and protein kinase A inhibitor (RP-8-CPT-CAMPS). (d) Same as (c) without IFN-γ. (e) Representative plot and quantification (left and right panel) of phospho-CREB (Ser133) levels in naïve CD4^+ T cells cultured with anti-CD3/anti-CD28 coated beads for 1 hour in the presence or absence of inosine. (f) Schematic overview of experimental setup to deplete classical dendritic cells during MC38 tumor challenge and anti-CTLA-4 treatment. Intratumoral (g) frequency of CD8^+ T cells (h) IFN-γ^+CD8^+ T cells. (i and j) same as (g and h), but CD4^+ T cells and (k) tumor weight at […]. Data are mean±SEM and pooled from two individual experiments (a-b) n=5-8 samples/group (c-e) 10-15 biological replicates/group (f-k) 10 mice/group. *, P<0.05; **, P<0.01; ***, P<0.001; ****, P<0.0001
Bone marrow derived dendritic cells (BMDCs) were generated from flushed bone marrow cells, maintained in RPMI-1640 (Sigma) supplemented with 10% FBS, 50 μm 2-Mercaptoethanol (Sigma) 100 units/ml penicillin, 100 μg/ml streptomycin sulfate and 20 ng/ml rm GM-CSF (R&D). Medium was exchanged after 48 hours and 72 hours. 5 days after culture, a magnetic cell sorting step was performed to enrich for CD11c^+ cells (Miltenyi Biotec). CD11c^+ cells were seeded in 96 flat bottom wells and pulsed with 20 ng/ml OVA323-339 and 100 ng/ml LPS (both Sigma) for 18 hours. In some conditions BMDCs were also cultured with 10 ng/ml rmIFN-γ (R&D).
Negative selection magnetic cell sorting (Miltenyi Biotec) was used to enrich naïve OT-II CD4^+ T cells. Naïve OT-II CD4^+ T cells were then co-cultured with BMDCs at a ratio of 2:1 or stimulated with anti-CD3/anti-CD28 T cell activation beads (Thermofisher) at a ratio of 1:1 for 48 hours prior to restimulation with PMA/lonomycin in the presence of Brefeldin-A and analysis (see Single cell preparation and flow cytometry for details). In some conditions cells were additionally cultured with various combinations of 2 μg/ml anti-CTLA-4, 100 μM db-cAMP (Sigma), 5 μM ZM 241385 (Sigma), 300 μM Rp-8-CPT-CAMPS (Cayman Chemical) or 2 mM inosine (Sigma) as described previously (He et al., 2017; Yao et al., 2013).

In the case of `OC[C@H]1O[C@@H](n2cnc3c(O)ncnc32)[C@H](O)[C@@H]1O` [inosine], the Th1 induction (in the absence of IFN-γ) is reported as “reduced Th1 induction” and the “Th1 differentiation of naïve T cells (T-bet+)” value (in the presence of exogenous IFN-γ) is reported as “strongly boosted Th1 differentiation of naïve T cells”.
